In ChEMBL document CHEMBL1156482, “Molecular mechanism of action of monocyclam versus bicyclam non-peptide antagonists in the CXCR4 chemokine receptor” (J Biol Chem, 2007):
Activity calls are given as the source filed them. The rule behind the calls is not given here.

Key:
[1] = target: C-X-C chemokine receptor type 4 (Homo sapiens, UniProt P61073, H113A); assay: (§1) Displacement of [125I]12G5 antibody from transmembrane domain 3 of human CXCR4 H113A mutant expressed in COS7 cells; assay type: cell-based, COS-7
[2] = system: C-X-C chemokine receptor type 4 (Homo sapiens), P61073 [H113A]; assay: as §1; assay type: cell-based; settings: COS-7
[3] = target: T1, C-X-C chemokine receptor type 4 (Homo sapiens, UniProt P61073, D171N); assay: Displacement of [125I]12G5 antibody from transmembrane domain 4 of human CXCR4 D171N mutant expressed in COS7 cells; assay type: cell-based, COS-7
T1 sequence (P61073 whole entry D171N, the tested form may be a part): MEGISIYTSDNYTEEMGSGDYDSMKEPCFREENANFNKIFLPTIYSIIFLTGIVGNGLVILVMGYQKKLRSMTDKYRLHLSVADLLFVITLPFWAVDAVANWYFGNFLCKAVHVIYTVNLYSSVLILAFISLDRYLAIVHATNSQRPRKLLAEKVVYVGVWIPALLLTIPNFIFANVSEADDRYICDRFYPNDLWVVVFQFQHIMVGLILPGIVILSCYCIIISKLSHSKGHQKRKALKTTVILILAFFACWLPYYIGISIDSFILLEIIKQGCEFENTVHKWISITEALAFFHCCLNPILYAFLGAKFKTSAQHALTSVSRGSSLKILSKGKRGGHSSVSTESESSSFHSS

[4] = target: C-X-C chemokine receptor type 4 (Homo sapiens, UniProt P61073, V196A); assay: (§2) Displacement of [125I]12G5 antibody from transmembrane domain 5 of human CXCR4 V196A mutant expressed in COS7 cells; assay type: cell-based, COS-7
[5] = system: C-X-C chemokine receptor type 4 (Homo sapiens), P61073 [V196A]; assay: as §2; assay type: cell-based; settings: COS-7
[6] = system: C-X-C chemokine receptor type 4 (Homo sapiens), P61073 [E288A]; assay: (§3) Displacement of [125I]12G5 antibody from transmembrane domain 7 of human CXCR4 E288A mutant expressed in COS7 cells; assay type: cell-based; settings: COS-7
C-X-C chemokine receptor type 4 (Homo sapiens), P61073 [E288A], sequence (P61073 whole entry E288A, the tested form may be a part): as the sequence (P61073 whole entry D171N, the tested form may be a part) above, with N171D, E288A counted along it

[7] = target: T2, C-X-C chemokine receptor type 4 (Homo sapiens, UniProt P61073, E288A); assay: as §3; assay type: cell-based, COS-7
T2 sequence (P61073 whole entry E288A, the tested form may be a part): as the sequence (P61073 whole entry D171N, the tested form may be a part) above, with N171D, E288A counted along it

[8] = system: C-X-C chemokine receptor type 4 (Homo sapiens), P61073 [H281A]; assay: (§4) Displacement of [125I]12G5 antibody from transmembrane domain 7 of human CXCR4 H281A mutant expressed in COS7 cells; assay type: cell-based; settings: COS-7
C-X-C chemokine receptor type 4 (Homo sapiens), P61073 [H281A], sequence (P61073 whole entry H281A, the tested form may be a part): as the sequence (P61073 whole entry D171N, the tested form may be a part) above, with N171D, H281A counted along it

[9] = target: T3, C-X-C chemokine receptor type 4 (Homo sapiens, UniProt P61073, H281A); assay: as §4; assay type: cell-based, COS-7
T3 sequence (P61073 whole entry H281A, the tested form may be a part): as the sequence (P61073 whole entry D171N, the tested form may be a part) above, with N171D, H281A counted along it

[10] = system: C-X-C chemokine receptor type 4 (Homo sapiens), P61073 [D262N]; assay: (§5) Displacement of [125I]12G5 antibody from transmembrane domain 6 of human CXCR4 D262N mutant expressed in COS7 cells; assay type: cell-based; settings: COS-7
[11] = target: C-X-C chemokine receptor type 4 (Homo sapiens, UniProt P61073, D262N); assay: as §5; assay type: cell-based, COS-7
[12] = system: Human immunodeficiency virus 1; assay: Antiviral activity against HIV1 clinical isolate 10 infected in U87.CD4 cells expressing human CXCR4 H281A mutant; assay type: functional, organism-based; settings: Human immunodeficiency virus 1, U87.CD4
[13] = system: C-X-C chemokine receptor type 4 (Homo sapiens), P61073 [G207F]; assay: (§6) Displacement of [125I]12G5 antibody from transmembrane domain 5 of human CXCR4 G207F mutant expressed in COS7 cells; assay type: cell-based; settings: COS-7
C-X-C chemokine receptor type 4 (Homo sapiens), P61073 [G207F], sequence (P61073 whole entry G207F, the tested form may be a part): as the sequence (P61073 whole entry D171N, the tested form may be a part) above, with N171D, G207F counted along it

[14] = target: C-X-C chemokine receptor type 4 (Homo sapiens, UniProt P61073, G207F); assay: as §6; assay type: cell-based, COS-7
C-X-C chemokine receptor type 4 (Homo sapiens, UniProt P61073, G207F), sequence (P61073 whole entry G207F): as the sequence (P61073 whole entry D171N, the tested form may be a part) above, with N171D, G207F counted along it

[15] = system: Human immunodeficiency virus 1; assay: Antiviral activity against HIV1 NDK infected in U87.CD4 cells expressing human CXCR4 D262N mutant; assay type: functional, organism-based; settings: Human immunodeficiency virus 1, NDK
[16] = system: C-X-C chemokine receptor type 4 (Homo sapiens), P61073 [A175F]; assay: (§7) Displacement of [125I]12G5 antibody from extracellular loop 2 of human CXCR4 A175F mutant expressed in COS7 cells; assay type: cell-based; settings: COS-7
C-X-C chemokine receptor type 4 (Homo sapiens), P61073 [A175F], sequence (P61073 whole entry A175F): as the sequence (P61073 whole entry D171N, the tested form may be a part) above, with N171D, A175F counted along it

[17] = target: T4, C-X-C chemokine receptor type 4 (Homo sapiens, UniProt P61073, A175F); assay: as §7; assay type: cell-based, COS-7
T4 sequence (P61073 whole entry A175F): as the sequence (P61073 whole entry D171N, the tested form may be a part) above, with N171D, A175F counted along it

[18] = target: C-X-C chemokine receptor type 4 (Homo sapiens, UniProt P61073, T287A); assay: (§8) Antagonist activity at human CXCR4 T287A mutant expressed in COS7 cells coexpressing G protein Gqi4myr assessed as inhibition of CXCL12-induced phosphatidylinositol turnover; assay type: functional, cell-based, COS-7
C-X-C chemokine receptor type 4 (Homo sapiens, UniProt P61073, T287A), sequence (P61073 whole entry T287A): as the sequence (P61073 whole entry D171N, the tested form may be a part) above, with N171D, T287A counted along it

[19] = system: C-X-C chemokine receptor type 4 (Homo sapiens), P61073 [T287A]; assay: as §8; assay type: functional, cell-based; settings: COS-7
C-X-C chemokine receptor type 4 (Homo sapiens), P61073 [T287A], sequence (P61073 whole entry T287A): as the sequence (P61073 whole entry D171N, the tested form may be a part) above, with N171D, T287A counted along it

[20] = system: C-X-C chemokine receptor type 4 (Homo sapiens), P61073 [D171N]; assay: (§9) Antagonist activity at human CXCR4 D171N mutant expressed in COS7 cells coexpressing G protein Gqi4myr assessed as inhibition of CXCL12-induced phosphatidylinositol turnover; assay type: functional, cell-based; settings: COS-7
C-X-C chemokine receptor type 4 (Homo sapiens), P61073 [D171N], sequence (P61073 whole entry D171N): as the sequence (P61073 whole entry D171N, the tested form may be a part) above

[21] = target: T1, C-X-C chemokine receptor type 4; assay: as §9; assay type: functional, cell-based, COS-7
[22] = system: Human immunodeficiency virus 1; assay: Antiviral activity against HIV1 NDK infected in U87.CD4 cells expressing human CXCR4 D171N mutant; assay type: functional, organism-based; settings: Human immunodeficiency virus 1, NDK
[23] = system: C-X-C chemokine receptor type 4 (Homo sapiens), P61073 [H281A]; assay: (§10) Antagonist activity at human CXCR4 H281A mutant expressed in COS7 cells coexpressing G protein Gqi4myr assessed as inhibition of CXCL12-induced phosphatidylinositol turnover; assay type: functional, cell-based; settings: COS-7
[24] = target: T3, C-X-C chemokine receptor type 4; assay: as §10; assay type: functional, cell-based, COS-7
[25] = system: Human immunodeficiency virus 1; assay: Antiviral activity against HIV1 NL43 infected in U87.CD4 cells expressing human CXCR4 E288A mutant; assay type: functional, organism-based
[26] = system: C-X-C chemokine receptor type 4 (Homo sapiens), P61073 [E288A]; assay: (§11) Antagonist activity at human CXCR4 E288A mutant expressed in COS7 cells coexpressing G protein Gqi4myr assessed as inhibition of CXCL12-induced phosphatidylinositol turnover; assay type: functional, cell-based; settings: COS-7
[27] = target: T2, C-X-C chemokine receptor type 4; assay: as §11; assay type: functional, cell-based, COS-7
[28] = system: Human immunodeficiency virus 1; assay: Antiviral activity against HIV1 NDK infected in U87.CD4 cells expressing human CXCR4 D171ND262N mutant; assay type: functional, organism-based; settings: Human immunodeficiency virus 1, NDK
[29] = system: C-X-C chemokine receptor type 4 (Homo sapiens), P61073 [I284A]; assay: (§12) Displacement of [125I]12G5 antibody from transmembrane domain 7 of human CXCR4 I284A mutant expressed in COS7 cells; assay type: cell-based; settings: COS-7
[30] = target: C-X-C chemokine receptor type 4 (Homo sapiens, UniProt P61073, I284A); assay: as §12; assay type: cell-based, COS-7
[31] = system: C-X-C chemokine receptor type 4 (Homo sapiens), P61073 [D187A]; assay: (§13) Displacement of [125I]12G5 antibody from extracellular loop 2 of human CXCR4 D187A mutant expressed in COS7 cells; assay type: cell-based; settings: COS-7
[32] = target: C-X-C chemokine receptor type 4 (Homo sapiens, UniProt P61073, D187A); assay: as §13; assay type: cell-based, COS-7
[33] = system: C-X-C chemokine receptor type 4 (Homo sapiens), P61073 [F172A]; assay: (§14) Displacement of [125I]12G5 antibody from transmembrane domain 4 of human CXCR4 F172A mutant expressed in COS7 cells; assay type: cell-based; settings: COS-7
[34] = target: C-X-C chemokine receptor type 4 (Homo sapiens, UniProt P61073, F172A); assay: as §14; assay type: cell-based, COS-7
[35] = target: C-X-C chemokine receptor type 4 (Homo sapiens, UniProt P61073, Y255A); assay: (§15) Antagonist activity at human CXCR4 Y255A mutant expressed in COS7 cells coexpressing G protein Gqi4myr assessed as inhibition of CXCL12-induced phosphatidylinositol turnover; assay type: functional, cell-based, COS-7
[36] = system: C-X-C chemokine receptor type 4 (Homo sapiens), P61073 [Y255A]; assay: as §15; assay type: functional, cell-based; settings: COS-7
C-X-C chemokine receptor type 4 (Homo sapiens), P61073 [Y255A], sequence (P61073 whole entry Y255A): as the sequence (P61073 whole entry D171N, the tested form may be a part) above, with N171D, Y255A counted along it

[37] = system: Human immunodeficiency virus 1; assay: Antiviral activity against HIV1 NDK infected in U87.CD4 cells expressing human CXCR4 E288A mutant; assay type: functional, organism-based; settings: Human immunodeficiency virus 1, NDK
[38] = system: C-X-C chemokine receptor type 4 (Homo sapiens), P61073 [A175F]; assay: (§16) Antagonist activity at human CXCR4 A175F mutant expressed in COS7 cells coexpressing G protein Gqi4myr assessed as inhibition of CXCL12-induced phosphatidylinositol turnover; assay type: functional, cell-based; settings: COS-7
[39] = target: T4, C-X-C chemokine receptor type 4; assay: as §16; assay type: functional, cell-based, COS-7
[40] = system: Human immunodeficiency virus 1; assay: Antiviral activity against HIV1 clinical isolate 10 infected in U87.CD4 cells expressing human CXCR4 D171N mutant; assay type: functional, organism-based; settings: Human immunodeficiency virus 1, U87.CD4
[41] = system: C-X-C chemokine receptor type 4 (Homo sapiens), P61073 [I259W]; assay: (§17) Antagonist activity at human CXCR4 I259W mutant expressed in COS7 cells coexpressing G protein Gqi4myr assessed as inhibition of CXCL12-induced phosphatidylinositol turnover; assay type: functional, cell-based; settings: COS-7
[42] = target: C-X-C chemokine receptor type 4 (Homo sapiens, UniProt P61073, I259W); assay: as §17; assay type: functional, cell-based, COS-7

`c1ccc(CNCc2ccc(CN3CCCNCCNCCCNCC3)cc2)nc1` showed a Ki [1] of 2500 nM, a logKi [2] of -5.6 and a Ki [3] of 3200 nM. The Ki [4] was 1800 nM, the logKi [5] was -5.74 and the logKi [6] was -4.94. For the same molecule, the Ki [7] was 11000 nM, the logKi [8] was -3.29 and the Ki [9] was 519000 nM. The logKi [10] was -3.22, the Ki [11] was 600000 nM and the IC50 [12] was 1950 nM. The logKi [13] was -6.81, the Ki [14] was 160 nM and the IC50 [15] was 5380 nM. For the same molecule, the logKi [16] was -3.67, the Ki [17] was 215000 nM and the Ki [18] was 10 nM. It also gave a logIC50 [19] of -8.1, a logIC50 [20] of -6.76 and a Ki [21] of 180 nM. The IC50 [22] was 22000 nM, the logIC50 [23] was -5.8 and the Ki [24] was 1600 nM. The Activity [25] was “inactive”, the logIC50 [26] was -5.17 and the Ki [27] was 1900 nM. The IC50 [28] was 4640 nM, the logKi [29] was -4.34 and the Ki [30] was 46000 nM. The logKi [31] was -6.27, the Ki [32] was 530 nM and the logKi [33] was -6.25. It also gave a Ki [34] of 560 nM, a Ki [35] of 20 nM and a logIC50 [36] of -7.79. For the same molecule, the IC50 [37] was > 5500 nM, the logIC50 [38] was -5.89 and the Ki [39] was 1300 nM. It also gave an IC50 [40] of 183000 nM, a logIC50 [41] of -7.08 and a Ki [42] of 80 nM.
